Laboratory results taken from article PMC6028453, “BrlR from Pseudomonas aeruginosa is a receptor for both cyclic di-GMP and pyocyanin” (Nature Communications, 2018).

Assays:
[1] = system: brlR promoter activity (C2E mut1); experiment: β-galactosidase assay, C2E mut1; assay type: cell-based, Pseudomonas aeruginosa
Protocol: (§1) We also performed β-galactosidase activity assays using a PbrlR-brlR-lacZ reporter construct to investigate the transcriptional function of BrlR mutants in vivo. […] To confirm the effect of c-di-GMP in P. aeruginosa, we carried out real-time quantitative PCR analyses. Following a previous report, we introduced the diguanylate cyclase PA4843 into a WT P. aeruginosa strain carrying either pHERD20T-empty or pHERD20T-PA4843. The transcription level of brlR was analyzed using the brlR 5 F and brlR 3 R primers (Supplementary Table 1). The transcriptional level of brlR in pHERD20T-PA4843 strain is 4.5 ± 1.3-fold higher than that in the pHERD20T-empty strain (Fig. 4h).
(§2) β-galactosidase activity was assayed with P. aeruginosa PA01 ΔbrlR strain carrying plasmid pME6522-borne transcriptional lacZ fusions. P. aeruginosa carrying the empty vector was used as the […]. The reporter plasmids are derivatives of the pME6522 plasmid in which multiple cloning sites were inserted before the LacZ with the promoter and coding regions of brlR with diverse mutations. These reporter plasmids were transformed into the reporter strain. Overnight cultures were diluted 20-fold with LB medium supplemented with appropriate antibiotics. […]

BrlR D35A DNA binding = target: T1, BrlR D35A DNA binding (Pseudomonas aeruginosa, UniProt Q9HUT5, D35A); experiment: EMSA, BrlR D35A; assay type: biochemical
T1 construct: His6-SUMO (N, cleaved yes); made in house; host or cells: E. coli BL21 DE3
T1 sequence (Q9HUT5 whole entry D35A): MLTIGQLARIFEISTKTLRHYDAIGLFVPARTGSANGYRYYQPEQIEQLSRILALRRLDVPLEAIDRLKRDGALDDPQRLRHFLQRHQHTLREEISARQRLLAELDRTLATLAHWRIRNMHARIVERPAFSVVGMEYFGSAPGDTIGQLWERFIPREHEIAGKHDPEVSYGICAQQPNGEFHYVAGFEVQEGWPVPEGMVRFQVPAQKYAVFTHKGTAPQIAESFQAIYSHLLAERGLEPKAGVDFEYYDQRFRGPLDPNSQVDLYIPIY
Protocol: (§3) A 6-carboxy-fluorescein (FAM)-labeled 36-bp brlR promoter DNA (PbrlR) or 80-bp mexA/mexE promoter DNA (PmexA/PmexE) probes (~0.375 pmol), BrlR protein and varying amounts of inducers were incubated in binding buffer (10 mM Tris HCl [pH 7.4], 50 mM KCl, 1 mM DTT, […] and 5 ng/mL poly [dI-dC]) for 60 min at 25 °C. Finally, glycerol was added to a concentration of 6.5%. The samples were subjected to a 5% polyacrylamide gel electrophoresis and run in 0.5 × Tris-borate-EDTA buffer at 80 V for 1 h at room temperature. Imaging and data analyses were performed using a Typhoon Scanner (GE Healthcare) and Imagequant software. The probes used are listed in Supplementary Table 1.

[2] = system: brlR promoter activity (wild-type BrlR); experiment: β-galactosidase assay, PbrlR-brlR-lacZ reporter, wild-type BrlR; assay type: cell-based, Pseudomonas aeruginosa; details: ΔbrlR strain, pHERD20T-PA4843 vs pHERD20T
Protocol: as §1, §2

BrlR mutant D35A = target: T2, BrlR mutant D35A (Pseudomonas aeruginosa, UniProt Q9HUT5, D35A); experiment: FP binding assay, BrlR D35A
T2 construct: His6-SUMO (N, cleaved yes); made in house; host or cells: E. coli BL21 DE3
T2 sequence (Q9HUT5 whole entry D35A): as above
Protocol: (§4) F-c-di-GMP and F-c-di-AMP both contain a fluorophore at one of the 2′-ribose hydroxyls of c-di-GMP and c-di-AMP, respectively (Fig. 2f). To measure the binding of c-di-GMP and c-di-AMP to BrlR variants, 1 nM F-c-di-GMP or F-c-di-AMP was incubated with increasing amounts of indicated BrlR WT, BrlR mutation, or BrlR-C in reaction buffer (25 mM HEPES, 100 mM NaCl, pH 7.5) at 25 °C for 20 min. 1 nM fluorescein was incubated with BrlR WT in the same reaction buffer at 25 °C. FP measurements were conducted on a Synergy 4 Microplate Reader (BioTek) at 25 °C. All experiments were performed in triplicate. The curves were fitted to deduce binding affinities by GraphPad Prism 5.
(§5) BrlR–c-di-GMPs interactions in two separate c-di-GMP binding sites
(§6) In the first binding site, c-di-GMP is half accommodated by the antiparallel β-sheet and two residues (M1 and D35). In detail, the backbone amide protons of the first M1 residue form a hydrogen bond (H-bond) with the phosphate oxygen atom of c-di-GMP, and the side chain of R31 forms two H-bonds with the Gua1 base. The residue D35 also forms an H-bond with the Gua1 base. The aromatic ring of Y40 interacts with the Gua1 base through a hydrophobic π-π interaction. In addition, the hydroxyl group of the Y270 side chain from another subunit interacts with the phosphate 2 of c-di-GMP via an H-bond (Fig. 2d). […]

BrlR mutant R86A = target: T3, BrlR mutant R86A (Pseudomonas aeruginosa, UniProt Q9HUT5, R86A); experiment: FP binding assay, BrlR R86A
T3 construct: His6-SUMO (N, cleaved yes); made in house; host or cells: E. coli BL21 DE3
T3 sequence (Q9HUT5 whole entry R86A): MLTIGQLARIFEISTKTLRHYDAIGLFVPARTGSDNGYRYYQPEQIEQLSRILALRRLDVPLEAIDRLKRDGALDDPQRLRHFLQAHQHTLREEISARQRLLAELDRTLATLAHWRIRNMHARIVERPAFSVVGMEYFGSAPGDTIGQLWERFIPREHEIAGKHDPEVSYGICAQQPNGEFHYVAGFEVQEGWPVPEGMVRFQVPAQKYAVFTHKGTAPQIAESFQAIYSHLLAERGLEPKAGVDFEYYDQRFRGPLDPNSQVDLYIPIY
Protocol: as §4, §5, §6

[3] = system: brlR promoter activity (C2E mut3); experiment: β-galactosidase assay, C2E mut3; assay type: cell-based, Pseudomonas aeruginosa
Protocol: as §1, §2

[4] = target: T4, C2E mut3 (R31A/D35A/Y40A/R67A/R86A/Y270A) DNA binding (Pseudomonas aeruginosa, UniProt Q9HUT5, D35A/R31A/R67A/R86A/Y270A/Y40A); experiment: EMSA, C2E mut3; assay type: biochemical
T4 construct: His6-SUMO (N, cleaved yes); made in house; host or cells: E. coli BL21 DE3
T4 sequence (Q9HUT5 whole entry R31A/D35A/Y40A/R67A/R86A/Y270A): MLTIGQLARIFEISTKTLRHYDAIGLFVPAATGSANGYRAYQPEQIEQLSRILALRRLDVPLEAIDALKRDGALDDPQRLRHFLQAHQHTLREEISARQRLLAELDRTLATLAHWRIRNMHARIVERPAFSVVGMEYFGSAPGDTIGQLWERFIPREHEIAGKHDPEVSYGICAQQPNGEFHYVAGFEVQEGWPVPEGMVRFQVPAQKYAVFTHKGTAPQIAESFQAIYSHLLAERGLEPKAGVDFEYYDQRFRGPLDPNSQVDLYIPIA
Protocol: as §3

BrlR R86A DNA binding = target: T5, BrlR R86A DNA binding (Pseudomonas aeruginosa, UniProt Q9HUT5, R86A); experiment: EMSA, BrlR R86A; assay type: biochemical
T5 construct: His6-SUMO (N, cleaved yes); made in house; host or cells: E. coli BL21 DE3
T5 sequence (Q9HUT5 whole entry R86A): as the sequence (Q9HUT5 whole entry R86A) above
Protocol: as §3

BrlR mutant R31A = target: T6, BrlR mutant R31A (Pseudomonas aeruginosa, UniProt Q9HUT5, R31A); experiment: FP binding assay, BrlR R31A
T6 construct: His6-SUMO (N, cleaved yes); made in house; host or cells: E. coli BL21 DE3
T6 sequence (Q9HUT5 whole entry R31A): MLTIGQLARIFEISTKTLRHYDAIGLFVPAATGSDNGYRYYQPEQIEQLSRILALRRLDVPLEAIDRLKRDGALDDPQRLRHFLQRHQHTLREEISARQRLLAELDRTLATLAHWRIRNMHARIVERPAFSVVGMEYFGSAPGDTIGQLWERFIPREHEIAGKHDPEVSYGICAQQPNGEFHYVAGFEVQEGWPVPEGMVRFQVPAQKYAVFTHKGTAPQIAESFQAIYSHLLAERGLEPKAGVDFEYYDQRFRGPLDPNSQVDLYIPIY
Protocol: as §4, §5, §6

`Nc1nc2c(ncn2[C@@H]2O[C@@H]3COP(=O)(O)O[C@H]4[C@@H](O)[C@H](n5cnc6c(=O)[nH]c(N)nc65)O[C@@H]4COP(=O)(O)O[C@H]3[C@H]2O)c(=O)[nH]1` [c-di-GMP, cyclic diguanylate monophosphate] was tested, and the “increase at high vs low c-di-GMP concentration (β-galactosidase activity)” value [1] was 2.0 fold, the “DNA bound in the presence vs absence of c-di-GMP” value (BrlR D35A DNA binding) was ~ 4.8 fold and the “increase at high vs low c-di-GMP concentration (β-galactosidase activity)” value [2] was 3.3 fold. The Kd (BrlR mutant D35A) was 17.5 ± 0.9 µM, the “KD value (in words)” value (BrlR mutant R86A) was “like that of C2E mut2” and the “response of β-galactosidase activity to increase in c-di-GMP concentration” value [3] was “no response”. For the same compound, the “effect of c-di-GMP on DNA binding” value [4] was “did not have any effect”, the “DNA bound in the presence vs absence of c-di-GMP” value (BrlR R86A DNA binding) was ~ 1.5 fold and the Kd (BrlR mutant R31A) was 42.7 ± 5.4 µM.
